The values below come from patent US20100233194A1, “TREATMENT OF NEOVASCULAR OCULAR DISEASE STATES” (priority 2007, published 2010).

This assay concerns VEGF-induced retinal vascular leakage. The assay is described as follows: VEGF-induced vascular leakage in a rabbit model of blood-retinal barrier breakdown (ocular fluorophotometry). The settings on record: for Inhibition of retinal vascular leakage: single intravitreal injection Day 0, 500 ng rhVEGF165 Day 5, fluorophotometry Day 7, rabbit.

For `CC1(C)O[C@@H]2C[C@H]3[C@@H]4CCC5=CC(=O)C=C[C@]5(C)[C@@]4(F)[C@@H](O)C[C@]3(C)[C@]2(C(=O)CO)O1` [TA, triamcinolone acetonide], the “Inhibition of retinal vascular leakage” value reads like this: (TA 75 μg) 13%; (TA 400 μg) 96%. Moreover, the “inhibition of the VEGF-induced retinal vascular leakage” value (separate study, TA 75 μg alone) is reported as 10%.
